Data as given in patent US10612068B2, “Culture medium containing a spore germination inhibiting or delaying compound” (BIOMERIEUX, priority 2008, dated 2020).

Key:
[1] = system: Bacillus licheniformis spores; details: L-alanine dehydrogenase dependent first step; cited from earlier work
[2] = system: Bacillus (Bacillus licheniformis, Bacillus thuringiensis/cereus) present in sporulated form; assay: Milk powder samples not contaminated with Staphylococcus aureus incubated in culture medium with or without D-alanine; fluorescence reading and MPN count of nonspecific growth; assay type: cell-based
Procedure: The example described hereinafter illustrates the inhibiting effect of D-alanine on the […] of microorganisms of Bacillus type (such as Bacillus licheniformis, Bacillus thuringiensis/cereus).
To do this, 59 samples of milk powder products liable to contain Bacillus microorganisms, also not contaminated with Staphylococcus aureus, were tested.
In order to study the inhibiting effect of D-alanine, two culture media were tested:
Medium 1: culture medium without D-alanine,
Medium 2: culture medium in the presence of D-alanine at a final concentration in the medium of between 0.05 and 0.1 mol/l (final concentration in the medium).
The composition of said culture medium is the following (in g/l, final concentration in the medium with or without D-alanine):
The samples were prepared according to ISO standard 8261: 2001 (concerning milk and milk products and relating to the “general guidelines for the preparation of test samples, of the stock suspension and of the decimal dilutions for the purpose of microbiological examination”) according to the following steps: • a) 10 grams of the sample are weighed out and placed in a Stomacher® bag, • b) 90 ml of tryptone salt diluent preheated to 45° C. are added so as to obtain an initial 1/10 dilution of the sample, • c) grinding is carried out using a Stomacher® machine for one minute, • d) the Stomacher® bag is placed in a water bath and stirred for 5 minutes at 45° C., • e) 1 ml of the sample (diluted to 1/10) is taken and placed in 3 ml of culture medium so as to obtain a 1/40 dilution, • f) incubation is carried out for a period of between 24 and 27 hours at a temperature of 37° C., • g) the culture medium is read by fluorescence and the level of contamination of the sample with microorganisms is determined by means of the most probable number technique.
The reading consists of a measurement of the fluorescence of the culture medium obtained after incubation. A large variation in the fluorescence values attests to acidification of the medium, said acidification itself resulting from the growth of one or more microorganisms.
The CV fluorescence values were calculated on the basis of the samples tested (not contaminated with Staphylococcus aureus).
The higher the CV, the greater the acidification of the medium, thereby attesting to growth of the microorganisms present in the culture medium. Conversely, the lower the CV, the less the acidification, thereby reflecting less growth of the microorganisms. The specificity of the medium is therefore better and the risk of false positives is therefore less (false-positive result linked to the acidification of the medium by a bacterium of a microorganism other than Staphylococcus aureus). […]

Row | Compound | inhibition of the first step of spore germination [1] | % of samples with MPN count <10 (good specificity) ([2]; 59 milk powder samples, D-alanine 0.05-0.1 mol/l, 24-27 hours at 37° C.) [%] | rate of false-positive results ([2]; 59 milk powder samples, false positives related to growth of Bacillus) [%] | highest false-positive count result ([2]; 59 milk powder samples, with the use of D-alanine) [CFU/gram] | effect on CV values obtained after incubation of the medium ([2]; D-alanine in the culture medium vs. medium without)
1 | CCOC(=O)C(C)=O [ethyl pyruvate] | inhibited | – | – | – | –
2 | C[C@@H](N)C(=O)O [D-alanine] | inhibited | 89.83 | 10.17 | ≤ 50 | greatly reduce the CV values
3 | CCCCCCCCO [octanol] | inhibited | – | – | – | –
